Test results reported in PubChem BioAssay (NCI).
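Cultured in 96-well plates, cells were exposed to test compound for 48 hours across five concentrations. TGI denotes the concentration required for complete inhibition of growth.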

The compounds below were run on IGROV1 ovarian (assay: DTP human tumour cell line panel, 48 h).

| Compound | TGI |
| --- | --- |
| CCOC(=O)CCC(NC(=O)c1ccc(Nc2nc3ccccc3nc2C(=O)OCC)cc1)C(=O)OCC (stereo not drawn) | 9.2 µM |
| CC(=O)c1sc2[n+](c1C)C(=O)/C(=C\c1ccccc1Cl)S2 | 33.8 µM |
| CC(NC(=O)C(Cc1ccc(OC(=O)c2ccccc2)cc1)NC(=O)OC(C)(C)C)C(=O)NCC(=O)NC(Cc1ccccc1)C(=O)NN (stereo not drawn) | > 100 µM |
| C[C@H](CCC(=O)NCC(=O)O)[C@H]1CC[C@H]2[C@@H]3[C@H](O)C[C@@H]4C[C@H](O)CC[C@]4(C)[C@H]3CC[C@]12C | > 100 µM |
| CN(C)/C=C/C=C(/C=N/S(=O)(=O)C(F)(F)F)C1C=CN(S(=O)(=O)C(F)(F)F)C=C1 | > 100 µM |
| Cc1cc(=O)oc2c(CNC(CC(C)C)C(=O)O)c(O)ccc12 (stereo not drawn) | > 100 µM |
| COC1CC(OC2C(C)OC(OC3C(C)OC(OC4C(C)OC(O[C@H]5CC[C@@]6(C)C(=CC[C@]7(O)[C@@H]6C[C@@H](O)[C@@]6(C)[C@]7(O)CC[C@@]6(O)C(C)=O)C5)CC4OC)CC3OC)CC2OC)OC(C)C1O (stereo partly drawn) | > 12.5 µM |
| Cc1ccc2c(c1C)C(=O)/C(=C/c1cccc(C)c1C(=O)O)C2 | > 100 µM |
| O=C1N(c2ccccc2)C(=S)/C(=C/c2ccc(Cl)cc2)N1c1ccc(Cl)cc1 | > 100 µM |
| O=C1C=C(N2CCN(CCOCCO)CC2)C(=O)c2c(O)ccc(O)c21 | 9.9 µM |
| CC/C(N)=N\NC(=O)OC(C)(C)C | > 100 µM |
| CC(=O)NC1C(OCc2ccccc2)OC(CO)C(O)C1OCC(=O)N[C@@H](C)C(=O)N[C@H](CCC(=O)NCCCNc1ccc([N+](=O)[O-])c2[nH]c3ccccc3c(=O)c12)C(N)=O (stereo partly drawn) | > 100 µM |
| CCOC(=O)c1cc(Br)c(-c2cc(C)co2)[nH]1 | > 100 µM |
| O=P(O)(O)CN1CCNCCN(CP(=O)(O)O)CC1 | > 100 µM |
| c1cc2c(cc1C1=NCCN1)c1cc(C3=NCCN3)ccc1n2CC1CCCCC1 | 69.7 µM |

These compounds were tested on UO-31 renal (assay: DTP human tumour cell line panel, 48 h).

| Compound | TGI |
| --- | --- |
| COc1cc2c3c(cc(Cl)nc3c1OC)C(O)(CC(=O)c1ccccc1)C(=O)N2 (stereo not drawn) | 26.2 µM |
| Cc1ccc(S[C@@H](C)[C@@](O)(C(N)=O)c2ccccc2)cc1 | 30.2 µM |
| CN1CCN([C@H]2C[C@H]3[C@@H]4CC=C5C[C@@H](O)CC[C@]5(C)[C@H]4CC[C@]3(C)[C@H]2O)CC1 | > 100 µM |
| CC(C)c1ccc(/C=C2\CSCC3=C2N=C2SCC(=O)N2C3c2ccc(C(C)C)cc2)cc1 (stereo not drawn) | > 100 µM |
| CCOC(=O)CCC(NC(=O)c1ccc(Nc2nc3ccccc3nc2C(=O)OCC)cc1)C(=O)OCC (stereo not drawn) | 12.2 µM |
| CC(=O)c1sc2[n+](c1C)C(=O)/C(=C\c1ccccc1Cl)S2 | 34 µM |
| CC(NC(=O)C(Cc1ccc(OC(=O)c2ccccc2)cc1)NC(=O)OC(C)(C)C)C(=O)NCC(=O)NC(Cc1ccccc1)C(=O)NN (stereo not drawn) | > 100 µM |
| C[C@H](CCC(=O)NCC(=O)O)[C@H]1CC[C@H]2[C@@H]3[C@H](O)C[C@@H]4C[C@H](O)CC[C@]4(C)[C@H]3CC[C@]12C | > 100 µM |
| CN(C)/C=C/C=C(/C=N/S(=O)(=O)C(F)(F)F)C1C=CN(S(=O)(=O)C(F)(F)F)C=C1 | 89.4 µM |
| Cc1cc(=O)oc2c(CNC(CC(C)C)C(=O)O)c(O)ccc12 (stereo not drawn) | > 100 µM |
| COC1CC(OC2C(C)OC(OC3C(C)OC(OC4C(C)OC(O[C@H]5CC[C@@]6(C)C(=CC[C@]7(O)[C@@H]6C[C@@H](O)[C@@]6(C)[C@]7(O)CC[C@@]6(O)C(C)=O)C5)CC4OC)CC3OC)CC2OC)OC(C)C1O (stereo partly drawn) | > 12.5 µM |
| Cc1ccc2c(c1C)C(=O)/C(=C/c1cccc(C)c1C(=O)O)C2 | > 43 µM |
| O=C1N(c2ccccc2)C(=S)/C(=C/c2ccc(Cl)cc2)N1c1ccc(Cl)cc1 | > 100 µM |
| O=C1C=C(N2CCN(CCOCCO)CC2)C(=O)c2c(O)ccc(O)c21 | 22.6 µM |
| CC/C(N)=N\NC(=O)OC(C)(C)C | > 100 µM |
| CC(=O)NC1C(OCc2ccccc2)OC(CO)C(O)C1OCC(=O)N[C@@H](C)C(=O)N[C@H](CCC(=O)NCCCNc1ccc([N+](=O)[O-])c2[nH]c3ccccc3c(=O)c12)C(N)=O (stereo partly drawn) | > 100 µM |
| CCOC(=O)c1cc(Br)c(-c2cc(C)co2)[nH]1 | > 100 µM |
| O=P(O)(O)CN1CCNCCN(CP(=O)(O)O)CC1 | > 100 µM |
| c1cc2c(cc1C1=NCCN1)c1cc(C3=NCCN3)ccc1n2CC1CCCCC1 | > 100 µM |

These compounds were tested on RPMI-8226 leukemia (assay: DTP human tumour cell line panel, 48 h).

| Compound | TGI |
| --- | --- |
| COc1cc2c3c(cc(Cl)nc3c1OC)C(O)(CC(=O)c1ccccc1)C(=O)N2 (stereo not drawn) | > 26.3 µM |
| Cc1ccc(S[C@@H](C)[C@@](O)(C(N)=O)c2ccccc2)cc1 | 74.8 µM |
| CN1CCN([C@H]2C[C@H]3[C@@H]4CC=C5C[C@@H](O)CC[C@]5(C)[C@H]4CC[C@]3(C)[C@H]2O)CC1 | 50.6 µM |
| CC(C)c1ccc(/C=C2\CSCC3=C2N=C2SCC(=O)N2C3c2ccc(C(C)C)cc2)cc1 (stereo not drawn) | > 100 µM |
| CCOC(=O)CCC(NC(=O)c1ccc(Nc2nc3ccccc3nc2C(=O)OCC)cc1)C(=O)OCC (stereo not drawn) | > 100 µM |
| CC(=O)c1sc2[n+](c1C)C(=O)/C(=C\c1ccccc1Cl)S2 | 49.3 µM |
| CC(NC(=O)C(Cc1ccc(OC(=O)c2ccccc2)cc1)NC(=O)OC(C)(C)C)C(=O)NCC(=O)NC(Cc1ccccc1)C(=O)NN (stereo not drawn) | 38.1 µM |
| C[C@H](CCC(=O)NCC(=O)O)[C@H]1CC[C@H]2[C@@H]3[C@H](O)C[C@@H]4C[C@H](O)CC[C@]4(C)[C@H]3CC[C@]12C | > 100 µM |
| CN(C)/C=C/C=C(/C=N/S(=O)(=O)C(F)(F)F)C1C=CN(S(=O)(=O)C(F)(F)F)C=C1 | > 100 µM |
